Data set [1] concerns Leishmania major. The experiment in a line: Antileishmanial activity against Leishmania major promastigotes incubated for 48 hrs by MTT assay. In kind it is functional, organism-based.
A short description of data set [2]: Selectivity index, ratio of IC50 for mouse RAW264.7 cells to IC50 for Leishmania major promastigotes. The settings on record: RAW264.7 cells versus Leishmania major promastigotes, read-out: Ratio IC50. The class given is toxicity, cell-based.
Data set [3] in a line: Toxicity against mouse RAW264.7 cells by XTT assay. The class given is cell-based. On the technique in general: Formazan colour is commonly taken as a measure of viable cells.

Residues, ends and D or L forms follow the SMILES beside them. *: point of attachment. Cbz = O=C(OCc1ccccc1)* Where only a bound is given, the exact number is not on record here.

This passage reports IC50 and selectivity ratio results from ChEMBL document CHEMBL2069272, “Leishmanicidal activities and cytotoxicities of bisnaphthoquinone analogues and naphthol derivatives from Burman Diospyros burmanica” (Bioorg Med Chem, 2012).

Turning to `COc1cccc2c1C(=O)C=C(C)C2=O`, the IC50 (as a rule, the point on the concentration scale where inhibition reaches its midpoint) in data set [1] turned out to be 3.3 µM; in data set [3], 45 µM. Further, the selectivity ratio in data set [2] was 13.6.

Consider `COc1c(C)cc(O)c2c(OC)cccc12`, for which the IC50 in data set [1] and in data set [3] was over 100 µM in each case.

On to `COc1c(C)cc2cccc(OC)c2c1O`, for which the IC50 in data set [1] was 45 µM; in data set [3] it was over 100 µM. For the same molecule, the selectivity ratio in data set [2] is over 2.22.

For `COc1cccc2cc(C)cc(O)c12`, the IC50 in data set [1] was 50 µM; in data set [3], over 100 µM. Further, the selectivity ratio in data set [2] was over 2.

Turning to `COc1ccc(OC)c2c(O)cc(C)cc12`, the results for the IC50 in data set [1] and in data set [3] were 38 µM and over 100 µM, respectively. Besides, the selectivity ratio in data set [2] is over 2.63.

`COc1cccc2c1C(=O)C(O)=C(C)C2=O`: the IC50 in data set [1] and in data set [3] was over 100 µM in each case.

The molecule `COc1ccc(OC)c2c1C(=O)C=C(C)C2=O` yielded an IC50 in data set [3] of over 100 µM.

Take `COc1cccc2cc(C=O)cc(O)c12`: the IC50 in data set [1] and in data set [3] was over 100 µM in each case.

Regarding `COc1c(O)ccc2c1C(=O)C(C)=CC2=O`, the figures for the IC50 in data set [1] and in data set [3] were 93 µM and 96 µM, respectively. Moreover, in data set [2], the selectivity ratio turned out to be 1.03.

In turn, `C[C@@H]1[C@H](O)[C@@H](C)/C=C/C=C/C=C/C=C/C=C/C=C/C=C/[C@H](O[C@@H]2O[C@H](C)[C@@H](O)[C@H](N)[C@@H]2O)C[C@@H]2O[C@](O)(C[C@@H](O)C[C@@H](O)[C@H](O)CC[C@@H](O)C[C@@H](O)CC(=O)O[C@H]1C)C[C@H](O)[C@H]2C(=O)O` [AMPHOTERICIN B] returned a concentration for half-maximal inhibition (IC50) in data set [1] of 0.035 µM.

In the case of `COc1cc(C)cc2c1C(=O)C=C(C1=C(C)C(=O)c3ccc(O)c(OC)c3C1=O)C2=O` [BURMANIN A], the IC50 was determined as 0.053 µM in data set [1] and 24 µM in data set [3]. Besides, the selectivity ratio in data set [2] was found to be 453.

With `COc1cc(C)cc2c1C(=O)C=C(c1c(C)cc3ccc(O)c(OC)c3c1O)C2=O` [BURMANIN B], the figures for the IC50 in data set [1] and in data set [3] were 0.18 µM and 31 µM, respectively. Moreover, the selectivity ratio in data set [2] stood at 172.

For the molecule `COc1cc(C)cc2c1C(=O)C=C(c1c(C)c(OC)c3ccc(O)c(OC)c3c1O)C2=O` [BURMANIN C], the IC50 worked out at 0.15 µM in data set [1] and 22 µM in data set [3]. Further, in data set [2], the selectivity ratio came to 147.

On to `CC(C)C[C@@H](C=O)NC(=O)[C@H](CC(C)C)NC(=O)[C@H](CC(C)C)NC(=O)OCc1ccccc1` [MG-132] (Cbz-Leu-Leu-Leu-aldehyde), for which, in data set [3], the IC50 is 0.63 µM.
